Data: PMC10056636, “3-Amino-Substituted Analogues of Fusidic Acid as Membrane-Active Antibacterial Compounds” (Membranes, 2023)
Values after ≈ are worked out from the molar mass of the structure shown. Values joined by “and” are separate entries in the source; they are usually repeats but may differ in a detail not shown here. Equal values may be shown once. Read-outs that look alike come from different tables or passages of the source.

How the values were obtained:
[1] = test system: Staphylococcus aureus (ATCC 43300) (MRSA); assay: Antibacterial whole-cell growth inhibition (MIC, CO-ADD); assay type: cell-based; conditions: S. aureus (MRSA) ATCC 43300, inhibition ≥80%, two replicates (n = 2)
Method: (§1) Antibacterial screening was carried out by the serial dilution method. All bacteria were cultured in the cation-adjusted Mueller Hinton broth (CAMHB) at 37 °C overnight. A sample of each culture was then diluted 40-fold in fresh broth and incubated at 37 °C for 1.5–3 h. The resultant mid-log phase cultures were diluted (CFU/mL measured by OD600) and then added into each well containing a test compound, giving a cell density of 5 × 10^5 CFU/mL and a total volume of 50 µL. All the plates were covered and incubated at 37 °C for 18 h without shaking.
(§2) Inhibition of bacterial growth was determined by measuring the absorbance at 600 nm (OD600) with a Tecan M1000 Pro monochromator plate reader. […]

[2] = test system: Pseudomonas aeruginosa (ATCC 27853); assay: as above; assay type: cell-based; conditions: P. aeruginosa, two replicates per cell
Method: as §1, §2

[3] = test system: Escherichia coli (ATCC 25922); assay: as above; assay type: cell-based; conditions: E. coli, two replicates per cell
Method: as §1, §2

[4] = test system: Acinetobacter baumannii (ATCC 19606); assay: as above; assay type: cell-based; conditions: A. baumannii, two replicates per cell
Method: as §1, §2

[5] = Ion permeability, pore formation and rupture of planar lipid bilayers; conditions: for formation of ion-permeable pores: DPhPG bilayers; for Cbr (threshold concentration required to rupture the bilayer): 0.1 M KCl, pH 7.4, 100 mV
Method: Synthetic 1,2-diphytanoyl-sn-glycero-3-phosphocholine (DPhPC) and 1,2-diphytanoyl-sn-glycero-3-phospho-(1′-rac-glycerol) (DPhPG) were purchased from Avanti® Polar Lipids (Avanti Polar Lipids, Inc., Alabaster, AL, USA). A KCl solution (0.1 M) was buffered with 5 mM HEPES, pH 7.4. Bilayer lipid membranes were prepared from DPhPC or DPhPG using a monolayer-opposition technique on a 50 µm-diameter aperture in a 10 µm-thick Teflon film separating the cis- and trans-compartments of the Teflon chamber. Experiments were performed in chambers containing 0.1 M KCl, 5 mM Hepes-KOH, pH 7.4.
The test compounds (4, 20, 22) were added to the cis-chamber as 10 mg/mL solutions in ethanol (to mimic the physiologically relevant conditions) up to the final concentrations and the effects of the compounds on the ion permeability of the model lipid membranes were studied. Ag/AgCl electrodes with 1.5% agarose/2 M KCl bridges were used to apply the transmembrane voltage (V) and measure the transmembrane current (I). ‘Positive voltage’ refers to the case in which the cis-side compartment is positive with respect to the trans-side. All experiments were performed at room temperature.
The current was measured using an Axopatch 200B amplifier (Molecular Devices, LLC, Orlean, CA, USA) in voltage clamp mode. Data were digitized using a Digidata 1440A and analyzed using pClamp 10.0 (Molecular Devices, LLC, Orlean, CA, USA) and Origin 8.0 (OriginLab Corporation, Northampton, MA, USA). The data were acquired at a sampling frequency of 5 kHz using low-pass filtering at 200 Hz.
The threshold concentrations (Cbr) of the derivatives required to rupture the bilayers composed of DPhPC or DPhPG at a transmembrane voltage of 100 mV were determined. Cbr-values were averaged from 3 to 4 bilayers and presented as mean ± standard error (p ≤ 0.05).
Pore-forming ability of compound 22 was studied by applying transmembrane voltages in a range of 50–200 mV with 50 mV step and by increasing the derivative concentration in the bilayer bathing solution from 10 to 150 µg/mL.

in vitro = assay type: cell-based, human; conditions: human, CC50
Method: (§3) HEK293 cells were counted manually in a Neubauer hemocytometer and then plated in 384-well plates containing the test compounds to give a density of 5000 cells per well in a final volume of 50 µL. DMEM supplemented with 10% FBS was used as the growth medium, and the cells were incubated together with the compounds for 20 h at 37 °C in 5% CO2.
(§4) The cytotoxicity (or cell viability) was measured by fluorescence, ex: 560/10 nm, em: 590/10 nm (F560/590), after addition of 5 µL of 25 µg/mL resazurin (2.3 µg/mL final concentration) and after incubation for further 3 h at 37 °C in 5% CO2. The fluorescence intensity was measured using a Tecan M1000 Pro monochromator plate reader with automatic gain control. The CC50 (50% cytotoxicity concentration) values were calculated by curve fitting of inhibition vs. log(concentration) using a sigmoidal dose–response function, with variable fitting values for bottom, top, and slope. In addition, the maximal percentage of cytotoxicity is reported as DMax, indicating any compounds with partial cytotoxicity. The curve fitting was implemented using Pipeline Pilot’s dose–response component. The results were similar to those obtained by other curve-fitting tools, such as GraphPad’s Prism and IDBS’s XlFit. Any value with > indicated samples with no activity (low DMax value) or samples with CC50 values above the maximum tested concentration (higher DMax value).
(§5) In addition, samples were flagged as partially cytotoxic if DMax ≥ 50%, even for CC50 > the maximum tested concentration.
(§6) Tamoxifen served as a positive cytotoxicity standard. Melittin was used as a positive hemolytic standard.

[6] = test system: human embryonic kidney cell line HEK293 (ATCC CRL-1573); assay: in vitro; assay type: cell-based; conditions: human, 20 h
Method: as §3, §4, §5, §6

[7] = test system: Candida albicans (ATCC 90028); assay: Antifungal growth inhibition (MIC, CO-ADD); assay type: cell-based; conditions: C. albicans, inhibition ≥80%, two replicates per cell
[8] = Pseudomonas aeruginosa, ATCC27853, read-out: MIC
[9] = Escherichia coli, ATCC25922, read-out: MIC
[10] = Acinetobacter baumannii, ATCC19606, read-out: MIC
[11] = Candida albicans, ATCC90028, read-out: MIC

Compound | MIC ([1]; Staphylococcus aureus, read-out: MIC) | MIC [2] | MIC [2, 8] | MIC [3] | MIC [3, 9] | MIC [4] | MIC [4, 10] | concentration from which (up to Cbr) stepwise current fluctuations are produced ([5]; DPhPG) | formation of ion-permeable pores [5] | Cbr (threshold concentration required to rupture the bilayer) ([5]; DPhPG) | amplitude of the stepwise current fluctuations ([5]; DPhPG, pores induced by the compound) | CC50 at 20 h (in vitro) | CC50 [6] | MIC [7] | MIC [7, 11] | MIC [1] | concentration up to which ionic permeability of lipid bilayers is not affected ([5]; DPhPG)
COC(=O)/C(CCC=C(C)C)=C1\[C@@H](OC(C)=O)C[C@@]2(C)[C@@H]1C[C@@H](O)[C@@H]1[C@@]3(C)CC[C@H](NCCCNCCCCNCCCN)[C@@H](C)C3CC[C@@]12C (stereo partly drawn) [Compound 22, Methyl (2Z)-2-[(3β,4α,8α,11α,14β,16β)-16-(acetyloxy)-3-{[3-({4-[(3-aminopropyl)amino]butyl}amino)propyl]amino}-11-hydroxy-4,8,10,14-tetramethylgonan-17-ylidene]-6-methylhept-5-enoate] | 2 µg/mL (≈ 2.8 µM) | 32 µg/mL (≈ 44.8 µM) | 32 µg/mL (≈ 44.8 µM) | 32 µg/mL (≈ 44.8 µM) | 32 µg/mL (≈ 44.8 µM) | 32 µg/mL (≈ 44.8 µM) | 32 µg/mL (≈ 44.8 µM) | 35 to 40 µg/mL | able to produce stepwise current fluctuations | 135 ± 10 µg/mL | 20–160 pS | 18.8 µg/mL (≈ 26.3 µM) | 18.1 µg/mL (≈ 25.3 µM) | 32 µg/mL (≈ 44.8 µM) | 32 µg/mL (≈ 44.8 µM) |  | 
COC(=O)/C(CCC=C(C)C)=C1\[C@@H](OC(C)=O)C[C@@]2(C)[C@@H]1C[C@@H](O)[C@@H]1[C@@]3(C)CC[C@H](NCCCNCCCCN)[C@@H](C)C3CC[C@@]12C (stereo partly drawn) [Compound 20, Methyl (2Z)-2-[(3β,4α,8α,11α,14β,16β)-16-(acetyloxy)-3-({3-[(4aminobutyl)amino]propyl}amino)-11-hydroxy-4,8,10,14-tetramethylgonan-17-ylidene]-6-methylhept-5-enoate] |  | >32 >32 µg/mL | > 32 µg/mL | 32 µg/mL (≈ 48.6 µM) | 32 µg/mL (≈ 48.6 µM) | 32 µg/mL (≈ 48.6 µM) | 32 µg/mL (≈ 48.6 µM) |  | not able to form transient ion-permeable pores | 190 ± 13 µg/mL |  | 15.4 µg/mL (≈ 23.4 µM) | 14.9 µg/mL (≈ 22.6 µM) | 32 µg/mL (≈ 48.6 µM) | 32 µg/mL (≈ 48.6 µM) | 4.0 µg/mL and 8.0 µg/mL | ≤ 200 µg/mL
